Experimental data as given in PMC7113723 (Antiviral Research, 2017).
Where two headings read alike, the source gives them in different places.

What was measured:
HCoV-229E [1] = assay: microbe, parasite or virus in culture; type: cell-based; conditions: Human coronavirus 229E, MRC5, 24 h
MERS-CoV = assay: microbe, parasite or virus in culture; type: cell-based, Middle East Respiratory Syndrome coronavirus
HRV A1 [2] = assay: microbe, parasite or virus in culture; type: cell-based, human rhinovirus A1; conditions: Rhinovirus A, MRC5, 24 h
PV [3] = assay: microbe, parasite or virus in culture; type: cell-based, poliovirus type 1; conditions: Enterovirus C, MRC5, 24 h
HCoV-229E [4] = assay: microbe, parasite or virus in culture; type: cell-based; conditions: Human coronavirus 229E, PBMC
HCoV-229E [5] = assay: microbe, parasite or virus in culture; type: cell-based; conditions: Human coronavirus 229E, Huh-7, 24 h
HRV A1 [6] = assay: microbe, parasite or virus in culture; type: cell-based, human rhinovirus A1; conditions: Rhinovirus A, HeLa, 24 h
PV [7] = assay: microbe, parasite or virus in culture; type: cell-based, poliovirus type 1
[8] = tested on: 5′ UTR of the ß-actin mRNA; type: cell-based
5′ UTR of PIM1 = type: cell-based
[9] = tested on: 5′ UTR of the classical swine fever virus (CSFV); type: cell-based
EBOV 5′ UTR VP40 = type: cell-based, Ebola virus
EBOV 5′ UTR L = type: cell-based, Ebola virus
5′ UTR of HCoV-229E = type: cell-based, human coronavirus 229E
5′ UTR of MERS-CoV = type: cell-based, Middle East Respiratory Syndrome coronavirus
HCoV-229E [10] = assay: Immunofluorescence of viral dsRNA and nsp8 in HCoV-229E-infected MRC-5 cells; type: cell-based, human coronavirus 229E; conditions: MRC-5, MOI 3, 12 h p.i.
HCoV-229E [11] = type: cell-based, human coronavirus 229E; conditions: Huh-7 cells, MOI 3
HCoV-229E [12] = type: cell-based, human coronavirus 229E; conditions: MRC-5 cells, 10 nM silvestrol, MOI 3, 12 h and 48 h p.i.
EBOV = conditions: cited from earlier work
[13] = ref Saradhi et al., 2011; cited from earlier work
Cell toxicity, MTT assay = conditions: human, PBMCs
[14] = Middle East respiratory syndrome-related coronavirus, MRC5, 24 h

SMILES: COC(=O)[C@H]1[C@@H](O)[C@@]2(O)c3c(OC)cc(O[C@@H]4O[C@@H]([C@H](O)CO)CO[C@H]4OC)cc3O[C@@]2(c2ccc(OC)cc2)[C@@H]1c1ccccc1 [silvestrol]
- EC50 (HCoV-229E [1]): 3 nM
- EC90 (HCoV-229E [1]): 27 nM
- SI, selectivity index (MERS-CoV): >7690
- EC50 (MERS-CoV; [14]): 1.3 nM
- EC90 (MERS-CoV; [14]): 12 nM
- EC50 (HRV A1 [2]): ~100 nM
- EC90 (HRV A1 [2]): 900 nM
- EC50 (PV [3]): ~20 nM
- EC90 (PV [3]): 180 nM
- EC50 (HCoV-229E [4]): 3.5 nM
- EC50 (HCoV-229E [4]; 24 h): 2.8 nM
- EC90 (HCoV-229E [4]; 24 h): 25 nM
- EC50 (HCoV-229E [5]): 40 nM
- EC90 (HCoV-229E [5]): 360 nM
- EC50 (HRV A1 [6]): 400 nM
- EC90 (HRV A1 [6]): 3600 nM
- SI, selectivity indices (PV [7]): ≤ 1.6
- EC50 (PV [7]; Enterovirus C, Vero, 24 h): 100 nM
- EC90 (PV [7]; Enterovirus C, Vero, 24 h): 900 nM
- inhibition of firefly luciferase expression [8]: not more than 10%
- inhibition of firefly luciferase expression (5′ UTR of PIM1): ~40%
- sensitivity towards silvestrol in the dual luciferase assay [9]: no sensitivity
- decrease of firefly luciferase activity (EBOV 5′ UTR VP40): 23%
- decrease of firefly luciferase activity (EBOV 5′ UTR L): 33%
- decrease of luciferase activity (5′ UTR of HCoV-229E): ~40%
- decrease of luciferase activity (5′ UTR of MERS-CoV): ~40%
- viral dsRNA and nsp8 protein (immunofluorescence) (HCoV-229E [10]; 10 nM silvestrol): significant decrease
- viral dsRNA and nsp8 protein (immunofluorescence) (HCoV-229E [10]; 100 nM silvestrol): nearly no viral dsRNA and nsp8 could be detected
- N and nsp8 protein accumulation (Western blot) (HCoV-229E [11]; 100 nM silvestrol): essentially undetectable
- N and nsp8 protein accumulation (Western blot) (HCoV-229E [11]; silvestrol up to 10 nM): unaffected
- N and nsp8 protein accumulation (Western blot) (HCoV-229E [12]): very low amounts
- EBOV titers (EBOV): strongly reduce EBOV titers
- pharmacokinetics in terms of bioavailability and biostability [13]: favorable pharmacokinetics
- CC50 at 24 h (Cell toxicity, MTT assay): > 1000 nM
